The source made the active and inactive calls.
Columns and labels:
[1] = target: SWI/SNF-related matrix-associated actin-dependent regulator of chromatin subfamily A member 2 (Homo sapiens, UniProt P51531); assay: Luminescence-based cell-based high throughput dose response assay to identify activators of the function of SWI/SNF related, matrix associated, actin dependent regulator of chromatin, subfamily a, member 2 (SMARCA2, BRM).; assay type: functional
[2] = Counterscreen for activators of the function of SWI/SNF related, matrix associated, actin dependent regulator of chromatin, subfamily a, member 2 (SMARCA2, BRM): Luminescence-based cell-based high throughput dose response assay to identify non-selective compounds using the VP16 reporter assay.; assay type: functional
[3] = target: T1, Corticotropin-releasing factor receptor 2/Corticotropin-releasing factor-binding protein (Homo sapiens, UniProt P24387+Q13324); assay: Dose Response confirmation of uHTS hits for small molecule antagonists of the CRF-binding protein and CRF-R2 receptor complex.; assay type: functional; conditions: read-out: IC50_Mean
T1 sequence (Q13324 whole entry): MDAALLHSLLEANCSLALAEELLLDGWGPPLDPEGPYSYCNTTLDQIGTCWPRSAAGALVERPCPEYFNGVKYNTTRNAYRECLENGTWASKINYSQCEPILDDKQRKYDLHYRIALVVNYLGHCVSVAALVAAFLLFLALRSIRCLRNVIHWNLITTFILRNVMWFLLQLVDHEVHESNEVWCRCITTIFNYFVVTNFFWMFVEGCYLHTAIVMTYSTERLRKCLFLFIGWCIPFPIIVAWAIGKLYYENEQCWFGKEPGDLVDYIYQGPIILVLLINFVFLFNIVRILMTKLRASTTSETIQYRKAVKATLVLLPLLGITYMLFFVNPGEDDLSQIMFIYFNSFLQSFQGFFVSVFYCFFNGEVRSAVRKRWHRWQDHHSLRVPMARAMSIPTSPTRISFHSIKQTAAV
T1 sequence (P24387 whole entry): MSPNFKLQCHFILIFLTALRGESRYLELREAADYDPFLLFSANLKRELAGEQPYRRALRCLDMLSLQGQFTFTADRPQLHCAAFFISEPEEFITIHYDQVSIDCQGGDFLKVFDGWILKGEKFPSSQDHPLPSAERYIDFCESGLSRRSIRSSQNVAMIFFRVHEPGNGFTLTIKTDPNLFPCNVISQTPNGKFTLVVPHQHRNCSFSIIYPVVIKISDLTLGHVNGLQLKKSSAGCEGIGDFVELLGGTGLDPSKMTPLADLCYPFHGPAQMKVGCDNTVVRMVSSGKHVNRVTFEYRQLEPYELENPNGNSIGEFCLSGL

[4] = target: T1, Corticotropin-releasing factor receptor 2/Corticotropin-releasing factor-binding protein; assay: activators of CRF receptor 2 with binding protein – uHTS hits, confirmation (AID 602473); assay type: functional; conditions: read-out: EC50_Mean
[5] = target: Beta-galactosidase (Escherichia coli, UniProt Q8VNN2); assay: Dose response counterscreen for EBI2 assay utilizing the enzyme, b-galactosidase.; assay type: functional
[6] = target: T2, Sentrin-specific protease 8 (Homo sapiens, UniProt Q96LD8); assay type: functional
T2 sequence (Q96LD8 whole entry): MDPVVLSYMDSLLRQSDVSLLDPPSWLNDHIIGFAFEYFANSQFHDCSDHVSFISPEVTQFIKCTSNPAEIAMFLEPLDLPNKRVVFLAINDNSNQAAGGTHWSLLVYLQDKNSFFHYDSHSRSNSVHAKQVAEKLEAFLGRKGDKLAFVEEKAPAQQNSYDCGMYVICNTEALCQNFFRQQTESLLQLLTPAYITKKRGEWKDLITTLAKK

[7] = target: T2, Sentrin-specific protease 8; assay type: functional; remark: listed apart in the source
[8] = target: T3, Histone-lysine N-methyltransferase NSD2 (Homo sapiens, UniProt O96028); assay type: biochemical
T3 sequence (O96028 whole entry): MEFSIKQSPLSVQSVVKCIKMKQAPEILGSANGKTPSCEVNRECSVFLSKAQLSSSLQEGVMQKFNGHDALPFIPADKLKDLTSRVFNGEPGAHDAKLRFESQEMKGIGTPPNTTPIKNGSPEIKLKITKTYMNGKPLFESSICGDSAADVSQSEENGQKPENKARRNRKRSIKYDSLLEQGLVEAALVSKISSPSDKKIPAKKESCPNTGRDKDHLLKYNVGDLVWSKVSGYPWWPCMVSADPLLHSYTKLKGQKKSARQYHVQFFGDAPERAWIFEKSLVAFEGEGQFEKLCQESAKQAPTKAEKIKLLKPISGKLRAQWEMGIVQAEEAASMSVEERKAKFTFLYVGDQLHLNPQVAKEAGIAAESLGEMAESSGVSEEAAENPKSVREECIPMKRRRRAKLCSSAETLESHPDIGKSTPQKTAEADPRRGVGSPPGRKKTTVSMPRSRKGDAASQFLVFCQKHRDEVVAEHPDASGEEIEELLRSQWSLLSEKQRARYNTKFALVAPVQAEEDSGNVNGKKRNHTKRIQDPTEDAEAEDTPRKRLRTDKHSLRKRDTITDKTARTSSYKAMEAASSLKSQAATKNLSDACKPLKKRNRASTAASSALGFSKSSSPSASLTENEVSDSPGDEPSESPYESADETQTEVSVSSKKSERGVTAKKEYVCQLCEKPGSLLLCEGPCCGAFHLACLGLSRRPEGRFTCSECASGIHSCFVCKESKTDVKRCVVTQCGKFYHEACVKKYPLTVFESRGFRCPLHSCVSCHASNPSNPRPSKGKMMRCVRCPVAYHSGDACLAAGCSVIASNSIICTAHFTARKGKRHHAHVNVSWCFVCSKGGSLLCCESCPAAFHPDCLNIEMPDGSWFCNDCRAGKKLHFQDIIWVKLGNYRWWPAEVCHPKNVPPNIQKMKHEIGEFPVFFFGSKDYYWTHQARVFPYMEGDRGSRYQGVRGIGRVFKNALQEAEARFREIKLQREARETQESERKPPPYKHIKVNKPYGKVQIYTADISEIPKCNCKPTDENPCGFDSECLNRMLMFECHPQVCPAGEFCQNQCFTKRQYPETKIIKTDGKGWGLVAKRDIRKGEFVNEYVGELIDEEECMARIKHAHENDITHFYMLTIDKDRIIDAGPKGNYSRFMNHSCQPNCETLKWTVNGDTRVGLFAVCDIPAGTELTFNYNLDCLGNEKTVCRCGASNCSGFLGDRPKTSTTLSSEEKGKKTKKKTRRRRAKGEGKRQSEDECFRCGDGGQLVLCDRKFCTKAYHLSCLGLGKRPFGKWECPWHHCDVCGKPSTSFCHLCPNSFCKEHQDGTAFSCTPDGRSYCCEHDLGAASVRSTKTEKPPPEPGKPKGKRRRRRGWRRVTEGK

[9] = target: T4, Replicative DNA helicase DnaB (Mycobacterium tuberculosis, UniProt P9WMR3); assay: DnaB intein splicing inhibitors, dose response, biochemical, cell-free fluorescence (AID 449749); assay type: functional
T4 sequence (P9WMR3 whole entry): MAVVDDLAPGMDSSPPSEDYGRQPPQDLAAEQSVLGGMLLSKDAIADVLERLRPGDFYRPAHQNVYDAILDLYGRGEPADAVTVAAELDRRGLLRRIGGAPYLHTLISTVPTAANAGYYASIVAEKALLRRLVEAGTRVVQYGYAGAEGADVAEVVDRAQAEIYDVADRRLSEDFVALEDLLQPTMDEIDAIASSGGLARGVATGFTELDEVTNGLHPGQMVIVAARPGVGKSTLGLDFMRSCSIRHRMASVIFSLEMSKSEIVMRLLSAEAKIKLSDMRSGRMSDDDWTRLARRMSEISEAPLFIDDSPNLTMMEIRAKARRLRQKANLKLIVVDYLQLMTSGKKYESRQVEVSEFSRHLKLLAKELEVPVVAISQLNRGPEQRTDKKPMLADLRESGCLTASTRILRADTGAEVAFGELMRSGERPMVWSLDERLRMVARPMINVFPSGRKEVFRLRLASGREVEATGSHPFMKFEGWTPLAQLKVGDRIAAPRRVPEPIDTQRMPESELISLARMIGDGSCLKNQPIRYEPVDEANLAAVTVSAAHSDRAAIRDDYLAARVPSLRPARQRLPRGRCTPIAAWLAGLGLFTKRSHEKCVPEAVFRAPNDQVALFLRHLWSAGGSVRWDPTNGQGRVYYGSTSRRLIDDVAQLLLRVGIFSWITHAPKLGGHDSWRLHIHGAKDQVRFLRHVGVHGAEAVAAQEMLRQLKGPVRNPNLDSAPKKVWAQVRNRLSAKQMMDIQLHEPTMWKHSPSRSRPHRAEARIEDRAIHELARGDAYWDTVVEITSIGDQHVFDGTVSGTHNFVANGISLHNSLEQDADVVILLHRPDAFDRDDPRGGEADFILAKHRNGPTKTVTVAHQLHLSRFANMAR

[10] = target: T5, Protein RecA (Mycobacterium tuberculosis, UniProt P9WHJ3); assay: Fluorescence Cell-Free Homogeneous Dose Retest to Identify Inhibitors of RecA-Intein Splicing Activity. [Related pubchem assays (depositor defined):AID2097, AID2223, AID489010, AID492950]; assay type: functional
T5 sequence (P9WHJ3 whole entry): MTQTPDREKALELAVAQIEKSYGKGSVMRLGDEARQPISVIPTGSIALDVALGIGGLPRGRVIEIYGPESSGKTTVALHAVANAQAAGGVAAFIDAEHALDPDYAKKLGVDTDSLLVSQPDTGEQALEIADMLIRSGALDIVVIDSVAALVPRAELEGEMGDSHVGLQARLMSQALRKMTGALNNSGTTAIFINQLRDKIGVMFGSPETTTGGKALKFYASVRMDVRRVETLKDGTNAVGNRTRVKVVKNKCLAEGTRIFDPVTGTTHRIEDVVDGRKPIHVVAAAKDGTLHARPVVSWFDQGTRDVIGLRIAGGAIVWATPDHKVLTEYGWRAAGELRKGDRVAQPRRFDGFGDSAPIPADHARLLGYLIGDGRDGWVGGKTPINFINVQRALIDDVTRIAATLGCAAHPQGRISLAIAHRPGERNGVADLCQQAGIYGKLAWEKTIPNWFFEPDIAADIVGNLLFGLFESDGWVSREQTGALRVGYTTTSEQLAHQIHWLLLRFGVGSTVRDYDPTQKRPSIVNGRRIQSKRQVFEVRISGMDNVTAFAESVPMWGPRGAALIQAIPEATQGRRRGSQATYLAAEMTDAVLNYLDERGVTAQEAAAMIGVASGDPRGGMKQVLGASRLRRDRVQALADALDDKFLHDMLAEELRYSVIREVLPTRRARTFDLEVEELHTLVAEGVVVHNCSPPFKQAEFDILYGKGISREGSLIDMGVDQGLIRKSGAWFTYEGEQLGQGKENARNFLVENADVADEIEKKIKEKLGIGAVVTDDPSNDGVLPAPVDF

[11] = target: T6, Carboxy-terminal domain RNA polymerase II polypeptide A small phosphatase 1 (Homo sapiens, UniProt Q9GZU7); assay: inhibitors of CTDSP1, concentration-response testing, biochemical assay, absorbance-based, actives from ultra-high-throughput screening (AID 540297); assay type: functional
T6 sequence (Q9GZU7 whole entry): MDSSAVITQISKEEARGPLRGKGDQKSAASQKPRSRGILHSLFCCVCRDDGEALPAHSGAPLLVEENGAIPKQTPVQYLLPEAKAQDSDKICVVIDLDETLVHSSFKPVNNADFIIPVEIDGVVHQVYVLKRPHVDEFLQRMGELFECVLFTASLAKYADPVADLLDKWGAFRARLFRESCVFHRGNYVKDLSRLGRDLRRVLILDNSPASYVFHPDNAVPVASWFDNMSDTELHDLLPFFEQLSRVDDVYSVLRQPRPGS

[12] = target: T7, Small ubiquitin-related modifier 1 (Homo sapiens, UniProt P63165); assay: inhibitors of SUMO1 peptide binding, dose response, biochemical, fluorescence polarization, uHTS hits (AID 624382); assay type: functional; conditions: read-out: IC50_Mean
[13] = target: T7, Small ubiquitin-related modifier 1; assay: inhibitors of SUMO1 partner interactions, dose response, biochemical, FRET (AID 624383); assay type: functional; conditions: read-out: IC50_Mean
[14] = target: T8, Caspase-6 (Homo sapiens, UniProt P55212); assay: human caspase-6 inhibitors, dose response, biochemical, VEID-R110 fluorescence, cherry-pick (AID 720632)
T8 sequence (P55212 whole entry): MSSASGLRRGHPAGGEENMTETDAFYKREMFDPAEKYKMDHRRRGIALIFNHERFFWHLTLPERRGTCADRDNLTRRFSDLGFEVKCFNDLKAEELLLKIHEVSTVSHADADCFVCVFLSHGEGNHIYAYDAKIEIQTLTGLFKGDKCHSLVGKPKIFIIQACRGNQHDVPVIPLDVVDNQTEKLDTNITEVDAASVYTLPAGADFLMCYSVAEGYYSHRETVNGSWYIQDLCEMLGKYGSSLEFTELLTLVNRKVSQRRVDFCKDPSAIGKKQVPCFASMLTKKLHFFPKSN

[15] = inhibitors of firefly luciferase expression or activity, dose response, H4 neuroglioma cells, luminescence (AID 1990); assay type: functional, cell-based
[16] = Luminescence Cell-Based Dose Response HTS to Identify Inhibitors of 5'UTR Stem-Loop Driven Prion Protein mRNA Translation in H4 Neuroglioblastoma Cells. [Related pubchem assays: 1827 (Project Summary), 1813 (Primary HTS)]; assay type: functional
[17] = inhibitors of SNCA 5'UTR-driven reporter translation, confirmation, H4 neuroglioma cells, luminescence (AID 1988); assay type: functional, cell-based
[18] = HEK293T cytotoxicity, dose response, cytotoxicity control for miR-122 modulator project, cell-based, activator set, cherry-pick (AID 720690); assay type: functional;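 further: HEK293T human cells scored for general mammalian cytotoxicity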

Chain of SWI/SNF-related matrix-associated actin-dependent regulator of chromatin subfamily A member 2 (P51531 whole entry): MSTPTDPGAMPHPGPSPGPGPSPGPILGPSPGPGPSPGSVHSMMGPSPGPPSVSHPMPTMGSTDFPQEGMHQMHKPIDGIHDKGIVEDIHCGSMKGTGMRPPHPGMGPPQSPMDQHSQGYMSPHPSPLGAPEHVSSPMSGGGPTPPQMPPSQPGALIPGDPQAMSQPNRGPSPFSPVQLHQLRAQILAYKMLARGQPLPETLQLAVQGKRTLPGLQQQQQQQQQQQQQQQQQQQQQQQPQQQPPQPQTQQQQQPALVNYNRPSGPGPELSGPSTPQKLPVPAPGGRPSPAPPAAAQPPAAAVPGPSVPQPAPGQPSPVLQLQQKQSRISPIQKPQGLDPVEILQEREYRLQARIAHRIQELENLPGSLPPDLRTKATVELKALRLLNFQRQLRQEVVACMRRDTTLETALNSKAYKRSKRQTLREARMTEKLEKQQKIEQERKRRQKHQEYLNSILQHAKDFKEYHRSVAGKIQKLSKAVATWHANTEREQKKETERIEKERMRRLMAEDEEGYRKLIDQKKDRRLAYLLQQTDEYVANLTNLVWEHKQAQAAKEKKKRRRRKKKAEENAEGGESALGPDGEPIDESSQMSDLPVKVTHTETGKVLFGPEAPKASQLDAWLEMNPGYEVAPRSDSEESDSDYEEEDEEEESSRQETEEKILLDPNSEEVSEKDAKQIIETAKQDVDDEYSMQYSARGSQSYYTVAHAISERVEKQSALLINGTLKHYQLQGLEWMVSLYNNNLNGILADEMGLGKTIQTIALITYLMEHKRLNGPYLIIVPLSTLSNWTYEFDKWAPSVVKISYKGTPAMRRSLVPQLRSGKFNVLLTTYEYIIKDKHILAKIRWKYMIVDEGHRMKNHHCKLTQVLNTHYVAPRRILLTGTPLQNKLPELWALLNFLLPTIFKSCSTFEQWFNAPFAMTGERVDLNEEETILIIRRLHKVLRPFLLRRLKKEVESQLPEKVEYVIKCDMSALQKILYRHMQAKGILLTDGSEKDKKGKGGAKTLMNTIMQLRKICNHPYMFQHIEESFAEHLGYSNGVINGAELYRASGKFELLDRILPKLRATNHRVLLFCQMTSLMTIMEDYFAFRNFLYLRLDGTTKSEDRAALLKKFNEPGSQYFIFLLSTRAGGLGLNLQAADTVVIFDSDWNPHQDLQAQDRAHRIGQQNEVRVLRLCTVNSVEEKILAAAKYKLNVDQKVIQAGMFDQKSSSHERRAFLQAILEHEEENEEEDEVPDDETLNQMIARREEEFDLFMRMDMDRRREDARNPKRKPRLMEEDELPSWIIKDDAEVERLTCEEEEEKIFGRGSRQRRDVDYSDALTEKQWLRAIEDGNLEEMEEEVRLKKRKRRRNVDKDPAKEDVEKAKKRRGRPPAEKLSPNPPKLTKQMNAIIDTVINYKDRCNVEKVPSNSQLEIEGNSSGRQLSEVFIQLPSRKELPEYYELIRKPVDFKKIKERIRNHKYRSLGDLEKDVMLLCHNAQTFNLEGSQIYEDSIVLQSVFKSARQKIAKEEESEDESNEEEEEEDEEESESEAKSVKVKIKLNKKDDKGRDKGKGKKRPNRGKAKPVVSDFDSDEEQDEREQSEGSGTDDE
T7 sequence (P63165 whole entry): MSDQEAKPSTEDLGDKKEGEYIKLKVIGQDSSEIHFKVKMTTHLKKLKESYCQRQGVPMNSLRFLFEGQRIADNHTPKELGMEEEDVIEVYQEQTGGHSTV
Chain of Beta-galactosidase (Q8VNN2 whole entry): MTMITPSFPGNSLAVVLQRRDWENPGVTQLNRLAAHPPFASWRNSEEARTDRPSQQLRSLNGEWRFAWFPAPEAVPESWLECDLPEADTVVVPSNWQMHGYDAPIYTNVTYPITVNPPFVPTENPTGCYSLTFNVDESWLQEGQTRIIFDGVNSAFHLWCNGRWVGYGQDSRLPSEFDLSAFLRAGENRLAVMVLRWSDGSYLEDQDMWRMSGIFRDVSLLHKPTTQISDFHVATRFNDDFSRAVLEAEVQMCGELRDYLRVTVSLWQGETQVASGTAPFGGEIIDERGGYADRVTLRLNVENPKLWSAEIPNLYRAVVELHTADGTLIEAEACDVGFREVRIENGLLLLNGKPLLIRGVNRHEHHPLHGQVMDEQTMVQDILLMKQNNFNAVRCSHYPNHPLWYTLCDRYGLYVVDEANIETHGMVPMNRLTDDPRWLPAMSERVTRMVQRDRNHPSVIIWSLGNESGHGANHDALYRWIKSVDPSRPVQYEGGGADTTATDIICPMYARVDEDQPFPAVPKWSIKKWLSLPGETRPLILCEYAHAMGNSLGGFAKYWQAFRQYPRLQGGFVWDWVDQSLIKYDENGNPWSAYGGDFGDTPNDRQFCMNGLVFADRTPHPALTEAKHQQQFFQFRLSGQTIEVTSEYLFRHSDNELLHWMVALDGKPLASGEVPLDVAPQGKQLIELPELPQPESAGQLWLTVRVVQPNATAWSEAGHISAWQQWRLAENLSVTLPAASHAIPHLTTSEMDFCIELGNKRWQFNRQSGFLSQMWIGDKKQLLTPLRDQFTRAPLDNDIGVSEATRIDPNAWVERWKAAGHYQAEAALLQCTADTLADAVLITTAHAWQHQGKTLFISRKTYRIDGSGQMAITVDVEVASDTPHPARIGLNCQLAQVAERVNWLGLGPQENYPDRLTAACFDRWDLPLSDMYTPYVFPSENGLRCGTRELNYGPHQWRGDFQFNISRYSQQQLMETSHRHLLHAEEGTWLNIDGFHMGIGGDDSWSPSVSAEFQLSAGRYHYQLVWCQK

CC(C)CSc1nnc(-c2ccco2)n1C
EC50 [1]: > 91.2 µM (inactive) | EC50 [2]: > 91.2 µM (inactive)

CC(=O)N1CCOc2ccc(S(=O)(=O)N3CCC(C(=O)NCc4ccc(C)cc4)CC3)cc21
IC50 [3]: > 47.1 µM (inactive) | EC50 [4]: > 53 µM (inactive) | IC50 [5]: > 80 µM (inactive)

O=C(COc1ccccc1)N1CCc2ccccc2C1
IC50 [6]: 93.6 µM (inactive) | IC50 [7]: 23.7 µM (active)

CCOC(=O)N1CCN(C(=O)/C=C/c2ccc(OC)cc2)CC1
IC50 [5]: > 80 µM (inactive)

O=[N+]([O-])c1ccc(N(CCO)CCO)c2c1no[n+]2[O-]
EC50 [1]: > 91.2 µM (inactive) | EC50 [2]: > 91.2 µM (inactive) | AC50 [8]: 4.45 µM (active)

CC1=NN(c2ccc(Cl)c(C(=O)O)c2)C(=O)C1
AC50 [9]: 1.88 µM (active) | EC50 [10]: 2.15 µM (active) | IC50 [11]: 8.96 µM (active) | IC50 [12]: > 66.6 µM (inactive) | IC50 [13]: 9.17 µM (active) | AC50 [14]: 1.16 µM (active)

CCOc1ccc(-c2nnc(SCC(=O)Nc3ccc4c(c3)c3ccccc3n4CC)n2N)cc1
EC50 [15]: 42.3 µM (active) | EC50 [16]: > 120 µM (not active) | EC50 [17]: 11.6 µM (active) | AC50 [18]: 10.3 µM (active)

Reference: ChEMBL document CHEMBL1201862, “PubChem BioAssay data set” (2004)
